Assay results as given in BindingDB's records for doi:10.3109/14756360903468155 (Banaras Hindu University, 2010).

Biological target: Urease (Glycine max, UniProt Q949H4)
Test: Urease Inhibition Assay
Settings: pH 7; 37 °C
Description: The inhibition studies of soybean urease were initiated with boric acid and boronic acids (butylboronic acid, 4-bromophenylboronic acid, and phenylboronic acid). Also, heavy metal ions (HgCl2, AgCl, and Cu(CH3COO)2) and sodium salts of mineral acids (NaF, NaCl, NaNO3, and Na2SO4) were investigated for their inhibitory effects. Stock solutions of inhibitors, except for 4-bromophenylboronicacid, were prepared in 0.05 M Tris-acetate buffer, pH 7.0, and were suitably diluted for experiments, whereas a stock solution of 4-bromophenylboronic acid was prepared in absolute ethanol and subsequently diluted in respective buffer. The activity assay was carried out at standard conditions as described earlier in the presence of varying concentrations of inhibitors. The yellow-orange colored solution was measured at 405 nm on a Unicam UV-2 spectrophotometer. The amount of NH3 liberated in the reaction mixture was estimated by calibrating Nessler's reagent with standard NH4Cl solution. One enzyme unit is defined as the amount of urease required to liberate 1 μmol of ammonia per minute under our test conditions (0.1 M urea, 0.05 M Trisacetatebuffer, pH 7.0, 37°C).

Sequence of Urease (Q949H4 whole entry): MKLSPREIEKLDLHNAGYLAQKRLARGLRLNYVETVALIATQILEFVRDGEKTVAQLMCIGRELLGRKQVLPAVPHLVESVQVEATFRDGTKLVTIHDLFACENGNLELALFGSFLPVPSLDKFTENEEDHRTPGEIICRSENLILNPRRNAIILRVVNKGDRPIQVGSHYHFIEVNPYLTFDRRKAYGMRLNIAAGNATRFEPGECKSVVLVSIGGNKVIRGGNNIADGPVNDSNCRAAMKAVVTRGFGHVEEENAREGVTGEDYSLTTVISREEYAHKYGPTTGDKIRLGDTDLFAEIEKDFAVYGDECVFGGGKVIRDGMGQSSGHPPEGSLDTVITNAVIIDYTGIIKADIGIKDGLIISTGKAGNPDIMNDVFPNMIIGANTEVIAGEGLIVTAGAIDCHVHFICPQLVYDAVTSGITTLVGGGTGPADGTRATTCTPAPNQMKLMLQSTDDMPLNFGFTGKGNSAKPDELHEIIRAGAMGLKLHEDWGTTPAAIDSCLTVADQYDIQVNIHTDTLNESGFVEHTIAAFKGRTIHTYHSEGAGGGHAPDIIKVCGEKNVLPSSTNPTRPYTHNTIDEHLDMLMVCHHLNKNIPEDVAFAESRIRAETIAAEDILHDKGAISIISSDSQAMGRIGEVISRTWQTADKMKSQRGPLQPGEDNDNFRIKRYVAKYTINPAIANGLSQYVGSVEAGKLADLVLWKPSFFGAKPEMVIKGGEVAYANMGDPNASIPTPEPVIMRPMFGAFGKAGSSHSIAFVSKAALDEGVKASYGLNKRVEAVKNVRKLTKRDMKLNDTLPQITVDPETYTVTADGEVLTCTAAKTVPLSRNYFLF

Q: OB(O)c1ccc(Br)cc1 [4-bromo phenyl boronic acid] was tested. Which Ki did it give?
A: 220 µM

Q: For OB(O)O [Boric acid], which Ki is on record?
A: 200 µM

Q: CCCCB(O)O [Borinic acid derivative] was tested. Which Ki did it give?
A: 1500 µM

Q: OB(O)c1ccccc1 [Phenylboronic acid, 22] was tested. Which Ki did it give?
A: 2000 µM
